Data taken from patent US20030055106A1, “Therapeutic uses of peroxometallic compounds” (priority 1999, published 2003).

Legend:
[1] = tested on: vitelline membrane of chick embryos; test: Embryonic vascularization test (EVT) ex ovo; format: in vivo
Description: FIG. 2: A and B show an anti-angiogenic response to bpV(phen), orthovanadate (Van) and protamine (Prot) using a vascularization test on the vitelline membrane of chick embryos. Each point represents a minimum of 15 embryos (15 to 28).
The normal development of a chick embryo involves the formation of an external vascular system which is located in the vitelline membrane and which carries nutrients from the vitellus (yolk of the egg) to the developing embryo. When placed onto the vitelline membrane, anti-angiogenic substances can inhibit blood vessel development in the vitelline membrane. To facilitate access to the vitelline membrane, chick embryos were transferred to a sterile culture box (Petri dish) and placed in a humidity- and temperature-controlled incubator. Embryos could then develop in this ex ovo condition for several days.
An aliquot of the tested compound was mixed with a methylcellulose solution and allowed to air-dry into thin discs. Methylcellulose forms an inert matrix from which the tested compound can diffuse slowly. Methylcellulose discs containing the tested compound were placed on the external border of the vascular perimeter of the vitelline membrane where the angiogenic process was still active.
The effects of the discs containing the tested compound on proximal vascular development were, in all cases, compared with those of discs containing control buffer. The discs were placed on the embryos' vitelline membrane on Day 0 or Day 1 of the ex ovo growth process; at this point, only beginnings of the main blood vessels are invading the vitellus. The embryos were then put in culture conditions until vascularization was assessed (approximately 24 h). Control buffer- and compound-containing discs were in all cases added simultaneously on the vitelline membrane of the same embryo. Both discs were arranged in a symmetrical fashion with respect to the cephalo-caudal axis of the embryo in order to minimize inter-individual variations when comparing the tested compounds with controls.
[…] After one day in culture, the level of vascularization in the area covered by the discs was graded by a pair of scientists in the usual blind fashion. To facilitate the location of the discs, black O-rings were placed around them just after their placement on the vitelline membrane. The evaluation scale for the EVTs was based on two different scoring systems.
Blood vessel formation was assessed in a blind fashion. The areas of the vitelline membranes that lay beneath the methylcellulose discs were scored for the degree of vascularization, using two scoring systems (“N/+” or “1-2-3”). The following selection criteria were used:
A score of “N” for “Normal” was attributed when all the following conditions were met:
Blood vessels in the evaluated area grew along their path with no abnormal deviation. Collateral branching density was normal and the growth path of the lateral branches was also normal.
A score of “+” was attributed when at least one of the following conditions was met:
1-2-3 Grading Scale System:
A score of 3 was attributed when the following conditions were met:
A score of 2 was attributed when at least one of the following conditions was met:
A score of 1 was attributed when at least one of the following conditions was met:
A score of 3 meant that blood vessel development was normal whereas a score of 1 indicated the greatest degree of angiostatic activity.

[2] = tested on: air pouch exudates (leukocyte recruitment, pro-inflammatory mediators); test: Murine air pouch model, L. major intra-pouch injection; format: in vivo, BALB/c mice
Protocol: FIG. 6: Neutrophils, eosinophils and MØ recruited in air pouch exudates of bpV(phen)-treated BALB/c mice in response to L. major promastigotes intra-pouch injection. Air pouch exudates were collected from animals injected with endotoxin-free PBS, LPS (20 μg/ml), L. major and bpV(phen) (500 nM i.p., 2 hour)+L. major, 6 hr post-inoculation. Each time point represents the mean±SD (n=4 mice) of 2 experiments similarly performed.
FIG. 7: In vivo Leishmania-induced pro-inflammatory mediator generations in pV-treated mice. (A) Nitrate level determination in air pouch exudates collected 6 hr post-inoculation of endotoxin-free PBS, L. major and bpV(phen) followed by L. major has been performed. Values are the mean±SEM of 2 experiments performed independently. (B) Evaluation of pro-inflammatory cytokines (IL-6 and IL-1β) and chemokines (MCP-1 and MIP-2) secreted in air pouch exudates collected as described above were measured by ELISA as described in more detail below. Values are the mean±SEM of 2 experiments performed independently. […] IL-6, IL-1β, MCP-1 and MIP-2 secretion were respectively 12.8-, 2-, 8- and 6.8-time more secreted in L. major -injected bpV(phen)-treated animals compared to L. major alone. PBS control was equal to background.
With the use of a murine air pouch model, we investigated early inflammatory events that occur following L. major skin injection in bpV(phen)-treated animals (FIG. 6).
In parallel to this experiment, in vivo generation of Leishmania-induced NO and pro-inflammatory mediators in bpV(phen)-treated mice were measured in air pouch exudates (FIG. 7).

ETs (ET-1, ET-2, ET-3) = test: Plasma endothelin levels after insulin (RIA); format: in vivo; settings: rats, bpV(phen) 0.5 mg/100 g b.w. i.p. 16 hours before insulin
Protocol: The data presented in Table III show the effect of bpV(phen) on the plasmatic levels of ETs. […] Two minutes following insulin administration (1.5 μg/100 g b.w, or vehicle), the plasma levels of ETs were determined. Insulin administration induced a strong increase of seric ET concentration (54). […] In addition, bpV(phen) decreased the insulin-stimulated levels of plasmatic ETs below control levels. […] ETs (ET-1, ET-2, ET-3) were measured by RIA (Amersham kit RPA 555) after lyophilization and extraction on C2 columns (500 mg). Results are mean ±SEM, p<0.0209, control (n=4) vs Insulin, pV (n=3).

[3] = L. major-injected bpV(phen)-treated animals, 6 hr, ELISA
[4] = bpV(phen)-treated + L. major, 6 hr

With `O.O.O.OO.OO.[K+].[OH-].[V].c1cnc2c(c1)ccc1cccnc12` [bpV(phen), potassium bisperoxo(1,10-phenanthroline)oxovanadate] the “Anti-angio.activity 1 to 3 (1: no angiogenesis; 3: normal angiogenesis)” value ([1]; 0.001 μg, Assay 1) was 2.7, the “Anti-angio.activity % (proportion of embryos showing an anti-angiogenic response)” value (shortened to “Anti-angio.activity %”) ([1]; 0.001 μg, Assay 1) was 12% and the “Anti-angio.activity 1 to 3 (1: no angiogenesis; 3: normal angiogenesis)” value ([1]; 0.001 μg, Assay 2) was 2.4. The “Anti-angio.activity %” value ([1]; 0.001 μg, Assay 2) was 20%, the “Anti-angio.activity 1 to 3 (1: no angiogenesis; 3: normal angiogenesis)” value ([1]; 0.001 μg, Assay 5) was 2.6 and the “Anti-angio.activity %” value ([1]; 0.001 μg, Assay 5) was 16%. For the same molecule, the “Anti-angio.activity 1 to 3 (1: no angiogenesis; 3: normal angiogenesis)” value ([1]; 0.01 μg, Assay 1) was 2.3, the “Anti-angio.activity %” value ([1]; 0.01 μg, Assay 1) was 31% and the “Anti-angio.activity 1 to 3 (1: no angiogenesis; 3: normal angiogenesis)” value ([1]; 0.01 μg, Assay 2) was 2.5. The “Anti-angio.activity %” value ([1]; 0.01 μg, Assay 2) was 19%, the “Anti-angio.activity 1 to 3 (1: no angiogenesis; 3: normal angiogenesis)” value ([1]; 0.01 μg, Assay 5) was 2.4 and the “Anti-angio.activity %” value ([1]; 0.01 μg, Assay 5) was 25%. For the same molecule, the “Anti-angio.activity 1 to 3 (1: no angiogenesis; 3: normal angiogenesis)” value ([1]; 0.1 μg, Assay 1) was 1.8, the “Anti-angio.activity %” value ([1]; 0.1 μg, Assay 1) was 61% and the “Anti-angio.activity 1 to 3 (1: no angiogenesis; 3: normal angiogenesis)” value ([1]; 0.1 μg, Assay 2) was 2.2. The “Anti-angio.activity %” value ([1]; 0.1 μg, Assay 2) was 45%, the “Anti-angio.activity 1 to 3 (1: no angiogenesis; 3: normal angiogenesis)” value ([1]; 0.1 μg, Assay 5) was 2.0 and the “Anti-angio.activity %” value ([1]; 0.1 μg, Assay 5) was 53%. For the same molecule, the “Anti-angio.activity 1 to 3 (1: no angiogenesis; 3: normal angiogenesis)” value ([1]; 1 μg, Assay 1) was 1.6, the “Anti-angio.activity %” value ([1]; 1 μg, Assay 1) was 86% and the “Anti-angio.activity 1 to 3 (1: no angiogenesis; 3: normal angiogenesis)” value ([1]; 1 μg, Assay 2) was 1.1. For the same molecule, the “Anti-angio.activity %” value ([1]; 1 μg, Assay 2) was 100%, the “Anti-angio.activity 1 to 3 (1: no angiogenesis; 3: normal angiogenesis)” value ([1]; 1 μg, Assay 4) was 1.0 and the “Anti-angio.activity %” value ([1]; 1 μg, Assay 4) was 96%. For the same molecule, the “Anti-angio.activity 1 to 3 (1: no angiogenesis; 3: normal angiogenesis)” value ([1]; 1 μg, Assay 5) was 1.2, the “Anti-angio.activity %” value ([1]; 1 μg, Assay 5) was 94% and the “approximate IC50, neovascularization (regardless of the scoring system)” value ([1]; per methylcellulose disc) was ~0.1 µg. For the same molecule, the “NO generation (nitrate level) in air pouch exudates in response to L. major infection” value ([2]; 6 hr post-inoculation) was “enhanced generation”, the “IL-1β secretion in air pouch exudates, compared to L. major alone” value [2, 3] was 2 time and the “IL-6 secretion in air pouch exudates, compared to L. major alone” value [2, 3] was 12.8 time. The “MCP-1 secretion in air pouch exudates, compared to L. major alone” value [2, 3] was 8 time, the “MIP-2 secretion in air pouch exudates, compared to L. major alone” value [2, 3] was 6.8 time and the “recruitment of cells in air pouch exudates” value ([2]; bpV(phen) 500 nM i.p., 2 hour + L. major 10^7 parasites/ml, 6 hours post-injection, vs L. major alone) was “five times greater”. The “recruited leukocytes that were eosinophils” value [2, 4] was 18%, the “recruited leukocytes that were macrophages” value [2, 4] was 12% and the “recruited leukocytes that were neutrophils” value [2, 4] was ~70%. For the same molecule, the “insulin-induced increase of seric ET concentration” value (ETs (ET-1, ET-2, ET-3)) was “completely abolished” and the Plasma endothelins (ETs (ET-1, ET-2, ET-3); two minutes after insulin 1.5 μg/100 g b.w., mean ±SEM, n=3) was 77.68 ± 3.08 pg/mL.
